Laboratory results as given in patent publication US8575342B2, “HIV inhibiting 5-heterocyclyl pyrimidines” (Tibotech Pharmaceuticals Ltd., priority 2004, dated 2013).
Read-outs that look alike come from different tables or passages of the source.

Experiments:
[1] = system: wild type HIV-LAI strain (IIIB); assay: cellular antiviral assay, strain IIIB; format: cell-based; details: for EC50: read-out: pEC50 IIIB (converted)
Text: Strain IIIB is wild type HIV-LAI strain

[2] = system: HIV strain B, mutation K103N in HIV reverse transcriptase; assay: cellular antiviral assay, strain B; format: cell-based; details: for EC50: Human immunodeficiency virus 1, read-out: pEC50 B (converted)
Text: Strain B contains mutation K103N in HIV reverse transcriptase, […]

[3] = system: HIV strain C, mutation L100I in HIV reverse transcriptase; assay: cellular antiviral assay, strain C; format: cell-based; details: for pEC50 C: strain C, L100I; for EC50: Human immunodeficiency virus 1, read-out: pEC50 C (converted)
Text: Strain C contains mutation L100I in HIV reverse transcriptase, […]

[4] = system: HIV strain D, mutation Y188L in HIV reverse transcriptase; assay: cellular antiviral assay, strain D; format: cell-based; details: for pEC50 D: strain D, Y188L; for EC50: Human immunodeficiency virus 1, read-out: pEC50 D (converted)
Text: Strain D contains mutation Y188L in HIV reverse transcriptase, […]

[5] = system: HIV strain E, mutations L100I and K103N in HIV reverse transcriptase; assay: cellular antiviral assay, strain E; format: cell-based; details: for pEC50 E: strain E, L100I and K103N; for EC50: Human immunodeficiency virus 1, read-out: pEC50 E (converted)
Text: Strain E contains mutations L100I and K103N in HIV reverse transcriptase, […]

[6] = cellular antiviral assay, strain G; format: cell-based, HIV; details: Human immunodeficiency virus 1, read-out: pEC50 G (converted)
[7] = Human immunodeficiency virus 1, IIIB

Structure (SMILES)	pEC50 IIIB ([1]; strain IIIB, wild type HIV-LAI)	pEC50 B ([2]; strain B, K103N)	pEC50 C [3]	pEC50 D [4]	pEC50 E [5]	EC50 [1, 7] [nM]	EC50 [2] [nM]	EC50 [3] [nM]	EC50 [4] [nM]	EC50 [5] [nM]	EC50 [6] [nM]	EC50 ([1]; Human immunodeficiency virus 1, strain IIIB, wild type HIV-LAI) [nM]
Cc1cc(C=CC#N)cc(C)c1Nc1nc(Nc2ccc(C#N)cc2)ncc1-c1nc(-c2ccccc2)no1 (mixture of isomers) [Compound 13]	7.8	7.7	7.8	7	7	–	–	–	–	–	–	–
Cc1cc(/C=C/C#N)cc(C)c1Nc1nc(Nc2ccc(C#N)cc2)ncc1-n1cccc1 [Compound 1]	–	–	–	–	–	1	0.794	1	6.31	3.98	1580	–
Cc1cc(/C=C/C#N)cc(C)c1Nc1nc(Nc2ccc(C#N)cc2)ncc1-c1cccnc1 [Compound 2]	–	–	–	–	–	0.631	0.631	2	3.98	12.6	7940	–
Cc1cc(/C=C/C#N)cc(C)c1Nc1nc(Nc2ccc(C#N)cc2)ncc1-c1ccco1 [Compound 3]	–	–	–	–	–	–	0.794	0.631	2.51	3.16	631	0.631
N#C/C=C/c1cc(F)c(Nc2nc(Nc3ccc(C#N)cc3)ncc2-n2cccc2)c(Cl)c1 [Compound 4]	–	–	–	–	–	1	1	0.794	12.6	3.16	2510	–
Cc1cc(/C=C/C#N)cc(C)c1Nc1nc(Nc2ccc(C#N)cc2)ncc1-c1nc(-c2ccco2)no1 [Compound 15]	7.6	–	6.7	6.2	4.6	–	–	–	–	–	–	–
Cc1noc(-c2cnc(Nc3ccc(C#N)cc3)nc2Nc2c(C)cc(/C=C/C#N)cc2C)n1 [Compound 16]	8.3	–	8.4	7.8	7.7	–	–	–	–	–	–	–
Cc1cc(/C=C/C#N)cc(C)c1Nc1nc(Nc2ccc(C#N)cc2)ncc1-c1nc(-c2cccs2)no1 [Compound 17]	7.0	–	6.0	5.7	5.0	–	–	–	–	–	–	–
Cc1cc(/C=C/C#N)cc(C)c1Nc1nc(Nc2ccc(C#N)cc2)ncc1-c1ncccc1N [Compound 20]	8.7	–	–	–	7.1	–	–	–	–	–	–	–
